Measured values reported in ChEMBL document CHEMBL1135245, “Highly potent inhibitors of TNF-alpha production. Part 1: Discovery of chemical leads” (2002).

Columns and labels:
[1] = system: Rattus norvegicus; experiment: Inhibition of Tumor necrosis factor alpha production after i.v. dose of 0.01-0.1 mg/10 mL/kg in 6-8 weeks old rats.; assay type: functional; details: for ED50: Rattus norvegicus, iv, read-out: ID50 (the source's name)
[2] = system: Rattus norvegicus; experiment: Tested for inhibition of Tumor necrosis factor alpha production after intravenous dosage of 10 mg/kg to 6-8 weeks old rats; assay type: functional
[3] = system: Mus musculus; experiment: Tested for inhibition of Tumor necrosis factor alpha production after intravenous dosage of 10 mg/kg to 8 weeks old mice; assay type: functional
[4] = system: Mus musculus; experiment: Tested for inhibition of Tumor necrosis factor alpha production in 8 weeks old mice after intravenous dosage of 0.01-0.1 mg/10 mL/kg; assay type: functional; details: for ED50: Mus musculus, iv, read-out: ID50 (the source's name)
[5] = system: Rattus norvegicus; experiment: Tested for inhibition of Tumor necrosis factor alpha production (po) in rats; assay type: functional; details: read-out: ID50 (the source's name)
[6] = system: Rattus norvegicus; experiment: Tested for inhibition of Tumor necrosis factor alpha production after intravenous dosage of 10 mg/kg to 6-8 weeks old rats
[7] = system: Rattus norvegicus; experiment: Tested for inhibition of Tumor necrosis factor alpha production after intravenous dosage of 30 mg/kg to 6-8 weeks old rats pretreated with saline; assay type: functional
[8] = system: Mus musculus; experiment: Tested for inhibition of Tumor necrosis factor alpha production after intravenous dosage of 30 mg/kg to 8 weeks old mice; assay type: functional

Work on `CCCCCCCC(=O)NC(COP(=O)([O-])[O-])c1cccc(OC(C)C)c1.[Na+].[Na+]` (stereo not given) yielded an ED50 [1] of 0.1 mg/kg.

For `CCCCCCCC(=O)NC(COP(=O)(O)O)c1ccccc1Cl` (stereo not given), the inhibition in vivo at 10 mg/kg [2] was 46%.

`O=C(N[C@@H](COP(=O)([O-])[O-])c1ccccc1)c1ccccc1.[Na+].[Na+]` was tested, and the ED50 ([3]; read-out: ID50 (the source's name)) was 32 mg/kg.

In the case of `CCCCCCCC(=O)NC(COP(=O)([O-])[O-])c1cccc(SC(C)C)c1.[Na+].[Na+]` (stereo not given), the ED50 [1] is reported as 0.21 mg/kg.

For `CCCCCCCC(=O)NC(COP(=O)([O-])[O-])c1cccc(OCC(C)C)c1.[Na+].[Na+]` (stereo not given), the ED50 [1] was 33 mg/kg.

`CCCCCCCC(=O)N[C@@H](COP(=O)([O-])[O-])c1ccccc1.[Na+].[Na+]` showed an ED50 [4] of 0.8 mg/kg, an ED50 [5] of 103 mg/kg and an ED50 [1] of 3 mg/kg.

For `CCCCCCCC(=O)NC(COP(=O)(O)O)c1ccccc1OC` (stereo not given), the inhibition in vivo at 10 mg/kg [6] was 55%.

With `CCCCCCC(=O)N[C@@H](COP(=O)([O-])[O-])c1ccccc1.[Na+].[Na+]` the ED50 [4] was 2.8 mg/kg and the ED50 [1] was 4.5 mg/kg.

In the case of `CCCCCCCC(=O)NC(COP(=O)(O)O)c1ccc(C)cc1` (stereo not given), the inhibition in vivo at 10 mg/kg [2] is reported as 44%.

In the case of `CCCCCCOC(=O)N[C@@H](COP(=O)([O-])[O-])c1ccccc1.[Na+].[Na+]`, the ED50 [4] is reported as 1.1 mg/kg and the ED50 [1] is reported as 3.2 mg/kg.

For `CCCCCCC(C)C(=O)N[C@@H](COP(=O)([O-])[O-])c1ccccc1.[Na+].[Na+]` (single isomer, unassigned; more polar), the ID50 [4] was 2.4 mg/kg and the ID50 [1] was 1.7 mg/kg.

Compound `CCCC(=O)N[C@@H](COP(=O)(O)O)c1ccccc1` has an inhibition in vivo at 10 mg/kg [3] of 17% and an inhibition in vivo at 30 mg/kg [7] of 37%.

With `CCCCCCCC(=O)NC(COP(=O)([O-])[O-])c1cc(OC)cc(OC)c1.[Na+].[Na+]` (stereo not given) the ED50 [1] was 3.8 mg/kg.

With `CCCCCCCC(=O)NC(COP(=O)([O-])[O-])c1cccc(OCC)c1.[Na+].[Na+]` (stereo not given) the ED50 [1] was 0.2 mg/kg.

`CCCCCCCC(=O)NC(COP(=O)([O-])[O-])c1cccc(C)c1.[Na+].[Na+]` (stereo not given) was tested, and the ED50 [1] was 53 mg/kg.

`CCCCCCCC(=O)N[C@H](COP(=O)([O-])[O-])c1cccc(OC)c1.[Na+].[Na+]` showed an ED50 [1] of 1.6 mg/kg.

`CCCCCCCC(=O)NC(COP(=O)([O-])[O-])c1cccc(OCCC)c1.[Na+].[Na+]` (stereo not given) gave an ED50 [1] of 0.7 mg/kg.

For `CCCCCCCC(=O)NC(COP(=O)([O-])[O-])c1cccc(OC)c1.[Na+].[Na+]` (stereo not given), the ED50 [1] was 0.5 mg/kg.

Work on `CCCCCCCC(=O)NC(COP(=O)(O)O)c1ccc(Cl)cc1` (stereo not given) yielded an inhibition in vivo at 10 mg/kg [2] of -118%.

`CCCCCCCC(=O)N[C@H](COP(=O)([O-])[O-])c1ccccc1.[Na+].[Na+]` gave an ED50 [1] of 10 mg/kg.

`CCCCCCCCCCC(=O)N[C@@H](COP(=O)(O)O)c1ccccc1` showed an inhibition in vivo at 10 mg/kg [3] of 50%.

Compound `CCCCCCC(C)C(=O)N[C@@H](COP(=O)([O-])[O-])c1ccccc1.[Na+].[Na+]` (stereo in doubt) has an ED50 [4] of 4.2 mg/kg and an ID50 [1] of 8 mg/kg.

In the case of `CC(=O)N[C@@H](COP(=O)(O)O)c1ccccc1`, the inhibition in vivo at 10 mg/kg [3] is reported as 28% and the inhibition in vivo at 30 mg/kg [7] is reported as 21%.

Compound `CCCCCCC(C)(C)C(=O)N[C@@H](COP(=O)(O)O)c1ccccc1` has an inhibition in vivo at 10 mg/kg [3] of 56%.

With `CCCCCCCC(=O)NC(COP(=O)([O-])[O-])c1cccc(Cl)c1.[Na+].[Na+]` (stereo not given) the ED50 [1] was 5.2 mg/kg.

Work on `CCCCCCCC(=O)NC(COP(=O)([O-])[O-])c1cccc(O)c1.[Na+].[Na+]` (stereo not given) yielded an ED50 [1] of 1.4 mg/kg.

For `CCCCCCCC(=O)NC(COP(=O)(O)O)c1cccc(OC2CCCC2)c1` (stereo not given), the inhibition in vivo at 10 mg/kg [2] was 7%.

With `CCCCCCCC(=O)NC(COP(=O)(O)O)c1ccc(OC)cc1` (stereo not given) the inhibition in vivo at 10 mg/kg [2] was 34%.

Compound `CCCCCC(=O)N[C@@H](COP(=O)([O-])[O-])c1ccccc1.[Na+].[Na+]` has an ED50 [4] of 30 mg/kg and an ED50 [1] of 50 mg/kg.

Work on `O=C(CCCCc1ccccc1)N[C@@H](COP(=O)(O)O)c1ccccc1` yielded an inhibition in vivo at 10 mg/kg [3] of 27%.

With `CCCCCCCC(=O)NC(COP(=O)([O-])[O-])c1cccc(SC)c1.[Na+].[Na+]` (stereo not given) the ED50 [1] was 0.56 mg/kg.

Work on `CCCCCCCC(=O)NC(COP(=O)([O-])[O-])c1ccccc1C.[Na+].[Na+]` (stereo not given) yielded an ED50 [1] of 2 mg/kg.

`CCCCCCCC(=O)NC(COP(=O)([O-])[O-])c1cccc(OC2CCC2)c1.[Na+].[Na+]` (stereo not given) was tested, and the ED50 [1] was 0.9 mg/kg.

`CCCC(CCC)C(=O)N[C@@H](COP(=O)(O)O)c1ccccc1` showed an inhibition in vivo at 30 mg/kg [8] of 36%.

Work on `CCCCCCNC(=O)N[C@@H](COP(=O)(O)O)c1ccccc1` yielded an inhibition in vivo at 10 mg/kg [3] of 58%.

For `CCCCCCCC(=O)N[C@@H](COP(=O)([O-])[O-])c1cccc(OC)c1.[Na+].[Na+]`, the ED50 [4] was 0.26 mg/kg.
